Like-named read-outs stand apart in the source and are kept apart here.
Experiment: Percutaneous absorption testing (percent of applied dose that penetrated past the stratum corneum)
Text: See Jorge, L., et al., Journal of Pain Research, Topical Preparations for Pain Relief—Efficacy and Patient Adherence, Vol. 4, No. 11-24, 2011.

[1] = 2 Hours, eight drugs dissolved together in Salt-Stable LS Advanced
[2] = 4 Hours, eight drugs dissolved together in Salt-Stable LS Advanced
[3] = 8 Hours, eight drugs dissolved together in Salt-Stable LS Advanced
[4] = 12 Hours, eight drugs dissolved together in Salt-Stable LS Advanced
[5] = 24 Hours, eight drugs dissolved together in Salt-Stable LS Advanced
[6] = 32 Hours, eight drugs dissolved together in Salt-Stable LS Advanced
[7] = 48 Hours, eight drugs dissolved together in Salt-Stable LS Advanced

Row | Compound | Percutaneous Absorption Testing, 2 Hours (2 h) [%] | Percutaneous Absorption Testing, 4 Hours (4 h) [%] | Percutaneous Absorption Testing, 8 Hours (8 h) [%] | Percutaneous Absorption Testing, 12 Hours (12 h) [%] | Percutaneous Absorption Testing, 24 Hours (24 h) [%] | Percutaneous Absorption Testing, 32 Hours (32 h) [%] | Percutaneous Absorption Testing, 48 Hours (48 h) [%] | other results
1 | NCC(CC(=O)O)c1ccc(Cl)cc1 (stereo not shown) [Baclofen] | 0 | 1 | 2 | 3 | 4 | 5 | 6 | –
2 | CCCCN1CCCCC1C(=O)Nc1c(C)cccc1C (stereo not shown) [Bupivacaine] | 0 | 1 | 1 | 2 | 3 | 4 | 4 | –
3 | CN(C)CCC=C1c2ccccc2C=Cc2ccccc21 [Cyclobenzaprine] | 0 | 2 | 3 | 5 | 7 | 8 | 10 | –
4 | O=C(O)Cc1ccccc1Nc1c(Cl)cccc1Cl [Diclofenac] | 0 | 1 | 4 | 4 | 7 | 10 | 10 | –
5 | NCC1(CC(=O)O)CCCCC1 [Gabapentin] | – | – | – | – | – | – | – | Percutaneous Absorption Testing, 2 Hours [1]: 0%; Percutaneous Absorption Testing, 4 Hours [2]: 0%; Percutaneous Absorption Testing, 8 Hours [3]: 1%; Percutaneous Absorption Testing, 12 Hours [4]: 2%; Percutaneous Absorption Testing, 24 Hours [5]: 2%; Percutaneous Absorption Testing, 32 Hours [6]: 3%; Percutaneous Absorption Testing, 48 Hours [7]: 3%
6 | CC(C)Cc1ccc(C(C)C(=O)O)cc1 (stereo not shown) [Ibuprofen] | – | – | – | – | – | – | – | Percutaneous Absorption Testing, 2 Hours: 5%; Percutaneous Absorption Testing, 4 Hours: 8%; Percutaneous Absorption Testing, 12 Hours: 20%; Percutaneous Absorption Testing, 24 Hours: 30%; Percutaneous Absorption Testing, 32 Hours: 39%; Percutaneous Absorption Testing, 48 Hours: 39%
7 | CNC1(c2ccccc2Cl)CCCCC1=O (stereo not shown) [Ketamine] | – | – | – | – | – | – | – | Percutaneous Absorption Testing, 2 Hours [1]: 4%; Percutaneous Absorption Testing, 4 Hours [2]: 7%; Percutaneous Absorption Testing, 8 Hours [3]: 20%; Percutaneous Absorption Testing, 12 Hours [4]: 25%; Percutaneous Absorption Testing, 24 Hours [5]: 38%; Percutaneous Absorption Testing, 32 Hours [6]: 51%; Percutaneous Absorption Testing, 48 Hours [7]: 51%
8 | CC(=O)CCCCn1c(=O)c2c(ncn2C)n(C)c1=O [Pentoxifylline] | 3 | 7 | 26 | 34 | 53 | 71 | 71 | –

— US9750689B2, “Transdermal silicone gel (silogel) compositions and methods of preparation” (Humco Holding Group, Inc., priority 2013, dated 2017)
